Test results as given in the kinase profiling compilation of Christmann-Franck et al. (2016).
Where “and” joins values, the source holds several entries; their conditions need not be identical. Equal entries are not always repeated.

Experiments:
Assay in all cases: KINOMEscan competition binding
Settings in all cases: compound 10.0 µM
[1] = target: MAP2K3 (human) (UniProt P46734)
[2] = target: NEK1 (human) (UniProt Q96PY6)
[3] = target: DCLK3 (human) (UniProt Q9C098)
[4] = target: STK32C (human) (UniProt Q86UX6)
[5] = target: MAPK13 (human) (UniProt O15264)
[6] = target: MAPK10 (human) (UniProt P53779)
[7] = target: ACVR1B (human) (UniProt P36896)
[8] = target: DAPK1 (human) (UniProt P53355)
[9] = target: ADCK4 (human) (UniProt Q96D53)
[10] = target: EPHA2 (human) (UniProt P29317)
[11] = target: CSNK1D (human) (UniProt P48730)
[12] = target: PRKAA2 (human) (UniProt P54646)
[13] = target: BMPR1B (human) (UniProt O00238)
[14] = target: CHEK1 (human) (UniProt O14757)
[15] = target: STK3 (human) (UniProt Q13188)
[16] = target: TEC (human) (UniProt P42680)
[17] = target: MERTK (human) (UniProt Q12866)
[18] = target: PRKD3 (human) (UniProt O94806)
[19] = system: ABL1 (human), P00519 [M351T]
[20] = target: BMPR2 (human) (UniProt Q13873)
[21] = target: RIPK1 (human) (UniProt Q13546)
[22] = target: FLT4 (human) (UniProt P35916)
[23] = target: ITK (human) (UniProt Q08881)
[24] = target: AAK1 (human) (UniProt Q2M2I8)
[25] = target: FLT3 (human) (UniProt P36888)
[26] = target: HCK (human) (UniProt P08631)
[27] = target: EPHA1 (human) (UniProt P21709)
[28] = target: EPHA5 (human) (UniProt P54756)
[29] = target: EIF2AK2 (human) (UniProt P19525)
[30] = target: MAP2K1 (human) (UniProt Q02750)
[31] = target: AKT3 (human) (UniProt Q9Y243)
[32] = target: CDK11B (human) (UniProt P21127)
[33] = target: SRC (human) (UniProt P12931)
[34] = target: MUSK (human) (UniProt O15146)
[35] = target: SIK1 (human) (UniProt P57059)
[36] = target: CAMK2G (human) (UniProt Q13555)
[37] = target: MINK1 (human) (UniProt Q8N4C8)
[38] = target: CDK19 (human) (UniProt Q9BWU1)
[39] = target: PHKG2 (human) (UniProt P15735)
[40] = target: YES1 (human) (UniProt P07947)

CSNK1D (human), sequence (P48730 whole entry, looked up): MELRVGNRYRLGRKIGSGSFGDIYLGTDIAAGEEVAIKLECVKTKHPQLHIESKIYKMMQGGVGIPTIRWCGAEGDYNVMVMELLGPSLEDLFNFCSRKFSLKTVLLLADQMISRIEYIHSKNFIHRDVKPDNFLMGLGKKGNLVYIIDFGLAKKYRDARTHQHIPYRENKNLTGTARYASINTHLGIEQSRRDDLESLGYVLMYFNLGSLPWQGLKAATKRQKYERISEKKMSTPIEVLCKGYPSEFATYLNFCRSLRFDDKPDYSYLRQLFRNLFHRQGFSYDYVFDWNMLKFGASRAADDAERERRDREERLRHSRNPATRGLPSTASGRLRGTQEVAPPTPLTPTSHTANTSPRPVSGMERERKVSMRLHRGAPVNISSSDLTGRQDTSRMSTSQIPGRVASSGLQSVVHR
HCK (human), sequence (P08631 whole entry, looked up): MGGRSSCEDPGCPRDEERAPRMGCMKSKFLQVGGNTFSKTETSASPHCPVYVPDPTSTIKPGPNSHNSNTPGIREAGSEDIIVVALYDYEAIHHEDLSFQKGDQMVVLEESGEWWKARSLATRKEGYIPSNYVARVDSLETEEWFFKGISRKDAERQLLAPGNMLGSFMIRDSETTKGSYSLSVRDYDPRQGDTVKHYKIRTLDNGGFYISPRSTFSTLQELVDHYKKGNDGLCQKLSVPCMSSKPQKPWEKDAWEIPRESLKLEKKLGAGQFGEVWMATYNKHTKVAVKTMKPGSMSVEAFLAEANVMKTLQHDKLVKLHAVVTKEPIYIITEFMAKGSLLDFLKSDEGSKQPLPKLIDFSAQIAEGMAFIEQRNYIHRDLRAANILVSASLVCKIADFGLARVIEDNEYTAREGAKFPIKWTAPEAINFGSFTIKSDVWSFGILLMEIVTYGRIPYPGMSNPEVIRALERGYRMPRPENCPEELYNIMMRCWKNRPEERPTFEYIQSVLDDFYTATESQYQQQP
EIF2AK2 (human), sequence (P19525 whole entry, looked up): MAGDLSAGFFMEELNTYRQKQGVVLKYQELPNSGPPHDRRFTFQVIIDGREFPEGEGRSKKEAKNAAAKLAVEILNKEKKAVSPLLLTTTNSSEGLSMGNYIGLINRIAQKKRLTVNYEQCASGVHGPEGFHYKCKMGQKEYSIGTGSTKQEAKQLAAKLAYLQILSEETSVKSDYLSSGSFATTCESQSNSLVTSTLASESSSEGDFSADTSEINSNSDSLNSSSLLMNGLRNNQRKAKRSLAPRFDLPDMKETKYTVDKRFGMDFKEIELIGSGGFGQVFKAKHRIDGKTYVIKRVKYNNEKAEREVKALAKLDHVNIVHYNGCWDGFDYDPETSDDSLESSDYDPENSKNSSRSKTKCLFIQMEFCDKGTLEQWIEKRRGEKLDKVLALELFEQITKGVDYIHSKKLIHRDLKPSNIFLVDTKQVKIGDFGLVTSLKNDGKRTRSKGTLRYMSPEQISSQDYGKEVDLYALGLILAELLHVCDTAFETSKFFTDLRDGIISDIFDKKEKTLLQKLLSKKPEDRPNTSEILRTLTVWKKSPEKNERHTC
FLT3 (human), sequence (P36888 whole entry, looked up): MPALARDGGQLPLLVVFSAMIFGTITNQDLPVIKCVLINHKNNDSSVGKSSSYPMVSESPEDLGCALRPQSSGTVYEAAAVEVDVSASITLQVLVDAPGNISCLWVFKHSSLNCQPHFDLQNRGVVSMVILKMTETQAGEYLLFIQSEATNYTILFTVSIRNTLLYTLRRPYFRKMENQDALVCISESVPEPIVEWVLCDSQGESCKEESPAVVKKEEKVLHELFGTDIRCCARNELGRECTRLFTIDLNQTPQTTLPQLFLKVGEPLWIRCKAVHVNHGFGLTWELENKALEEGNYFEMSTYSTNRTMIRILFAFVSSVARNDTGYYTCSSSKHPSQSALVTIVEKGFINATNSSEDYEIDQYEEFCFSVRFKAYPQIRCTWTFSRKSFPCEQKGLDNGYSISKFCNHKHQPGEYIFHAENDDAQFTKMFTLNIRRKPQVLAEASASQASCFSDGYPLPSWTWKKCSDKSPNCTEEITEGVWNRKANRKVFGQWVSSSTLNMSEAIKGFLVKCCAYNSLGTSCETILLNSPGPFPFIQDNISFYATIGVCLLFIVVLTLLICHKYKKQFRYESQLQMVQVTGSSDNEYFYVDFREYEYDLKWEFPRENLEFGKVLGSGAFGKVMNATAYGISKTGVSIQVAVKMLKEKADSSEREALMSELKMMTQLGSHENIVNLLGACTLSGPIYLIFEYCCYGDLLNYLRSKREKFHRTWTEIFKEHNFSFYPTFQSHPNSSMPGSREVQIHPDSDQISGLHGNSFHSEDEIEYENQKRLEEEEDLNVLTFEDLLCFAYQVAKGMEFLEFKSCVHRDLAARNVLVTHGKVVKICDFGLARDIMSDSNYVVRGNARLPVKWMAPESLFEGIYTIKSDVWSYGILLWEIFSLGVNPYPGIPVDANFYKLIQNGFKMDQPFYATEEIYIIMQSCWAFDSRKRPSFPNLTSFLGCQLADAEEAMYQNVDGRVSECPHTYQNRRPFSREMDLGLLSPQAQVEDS
NEK1 (human), sequence (Q96PY6 whole entry, looked up): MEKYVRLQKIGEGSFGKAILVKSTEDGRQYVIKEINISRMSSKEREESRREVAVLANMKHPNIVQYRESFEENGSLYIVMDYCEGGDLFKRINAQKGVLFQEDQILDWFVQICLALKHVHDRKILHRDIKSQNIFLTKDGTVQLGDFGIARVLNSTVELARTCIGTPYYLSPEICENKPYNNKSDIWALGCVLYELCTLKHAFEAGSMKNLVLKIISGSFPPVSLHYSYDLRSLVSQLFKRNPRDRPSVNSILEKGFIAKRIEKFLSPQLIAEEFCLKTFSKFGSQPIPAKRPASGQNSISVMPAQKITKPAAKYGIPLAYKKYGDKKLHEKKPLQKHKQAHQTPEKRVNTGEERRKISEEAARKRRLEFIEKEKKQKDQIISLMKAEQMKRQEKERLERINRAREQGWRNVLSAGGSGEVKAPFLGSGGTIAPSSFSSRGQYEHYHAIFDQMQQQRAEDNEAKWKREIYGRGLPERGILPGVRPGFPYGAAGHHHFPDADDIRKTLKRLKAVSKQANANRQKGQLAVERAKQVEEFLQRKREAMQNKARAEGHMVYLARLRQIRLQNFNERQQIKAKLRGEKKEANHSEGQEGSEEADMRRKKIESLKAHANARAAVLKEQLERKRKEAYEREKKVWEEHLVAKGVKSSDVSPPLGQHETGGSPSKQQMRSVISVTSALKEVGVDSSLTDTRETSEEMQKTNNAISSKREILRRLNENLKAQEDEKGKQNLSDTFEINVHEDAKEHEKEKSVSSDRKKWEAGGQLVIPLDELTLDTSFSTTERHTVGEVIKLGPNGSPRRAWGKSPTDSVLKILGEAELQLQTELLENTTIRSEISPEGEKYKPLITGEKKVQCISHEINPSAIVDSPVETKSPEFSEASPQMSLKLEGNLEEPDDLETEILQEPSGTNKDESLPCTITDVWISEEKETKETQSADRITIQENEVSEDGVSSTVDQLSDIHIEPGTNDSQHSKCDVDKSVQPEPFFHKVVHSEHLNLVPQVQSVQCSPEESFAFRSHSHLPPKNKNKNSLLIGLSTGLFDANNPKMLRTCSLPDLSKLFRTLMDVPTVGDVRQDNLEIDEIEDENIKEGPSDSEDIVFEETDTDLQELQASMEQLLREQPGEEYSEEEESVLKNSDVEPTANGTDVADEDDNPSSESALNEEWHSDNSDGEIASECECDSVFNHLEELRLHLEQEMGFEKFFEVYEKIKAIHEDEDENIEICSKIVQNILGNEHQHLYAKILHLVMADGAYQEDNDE
BMPR1B (human), sequence (O00238 whole entry, looked up): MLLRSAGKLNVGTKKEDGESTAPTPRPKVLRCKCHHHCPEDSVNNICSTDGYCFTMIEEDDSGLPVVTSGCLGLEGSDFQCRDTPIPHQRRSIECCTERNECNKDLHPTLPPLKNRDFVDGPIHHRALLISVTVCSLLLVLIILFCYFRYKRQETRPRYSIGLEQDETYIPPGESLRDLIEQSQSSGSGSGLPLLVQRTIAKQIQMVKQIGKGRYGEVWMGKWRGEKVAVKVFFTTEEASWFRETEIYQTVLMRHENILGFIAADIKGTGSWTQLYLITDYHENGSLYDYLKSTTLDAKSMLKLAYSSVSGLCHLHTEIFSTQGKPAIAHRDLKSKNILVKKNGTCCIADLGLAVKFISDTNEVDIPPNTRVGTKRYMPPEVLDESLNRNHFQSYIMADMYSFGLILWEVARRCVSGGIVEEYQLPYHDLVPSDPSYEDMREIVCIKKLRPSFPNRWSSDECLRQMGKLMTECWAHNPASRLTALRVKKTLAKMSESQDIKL
TEC (human), sequence (P42680 whole entry, looked up): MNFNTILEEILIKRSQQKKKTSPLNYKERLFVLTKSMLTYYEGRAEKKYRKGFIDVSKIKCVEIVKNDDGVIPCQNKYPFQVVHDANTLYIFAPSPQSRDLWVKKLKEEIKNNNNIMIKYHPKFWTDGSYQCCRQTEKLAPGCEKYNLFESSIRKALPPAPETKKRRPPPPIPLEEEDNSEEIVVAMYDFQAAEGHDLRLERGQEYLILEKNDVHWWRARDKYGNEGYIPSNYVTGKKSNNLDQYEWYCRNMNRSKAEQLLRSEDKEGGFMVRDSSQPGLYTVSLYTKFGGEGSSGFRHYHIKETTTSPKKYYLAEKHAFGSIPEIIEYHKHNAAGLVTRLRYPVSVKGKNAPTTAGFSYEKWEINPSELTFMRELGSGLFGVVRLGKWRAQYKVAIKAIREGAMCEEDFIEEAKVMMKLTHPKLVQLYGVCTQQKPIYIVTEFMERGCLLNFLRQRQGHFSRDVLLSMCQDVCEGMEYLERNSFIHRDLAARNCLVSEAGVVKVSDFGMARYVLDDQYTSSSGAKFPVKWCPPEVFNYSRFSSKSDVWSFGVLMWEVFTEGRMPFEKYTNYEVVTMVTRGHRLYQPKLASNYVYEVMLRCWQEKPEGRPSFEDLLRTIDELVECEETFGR

Q: Which kinase still bound, per cent of control [1] does the source give for `O=C1Nc2ccc(I)cc2/C1=C/c1cc(Br)c(O)c(Br)c1` here?
A: 46%

Q: And the kinase still bound, per cent of control [2]?
A: 87%

Q: What about the kinase still bound, per cent of control [3] of the same molecule?
A: 100%

Q: And the kinase still bound, per cent of control [4]?
A: 98%

Q: And the kinase still bound, per cent of control [5]?
A: 100%

Q: What about the kinase still bound, per cent of control [6] of the same molecule?
A: 60%

Q: And the kinase still bound, per cent of control [7]?
A: 33%

Q: What about the kinase still bound, per cent of control [8] of the same molecule?
A: 6.2%

Q: And the kinase still bound, per cent of control [9]?
A: 65%

Q: And the kinase still bound, per cent of control [10]?
A: 83%

Q: What about the kinase still bound, per cent of control [11] of the same molecule?
A: 72%

Q: What about the kinase still bound, per cent of control [12] of the same molecule?
A: 100%

Q: What about the kinase still bound, per cent of control [13] of the same molecule?
A: 27%

Q: What about the kinase still bound, per cent of control [14] of the same molecule?
A: 100%

Q: And the kinase still bound, per cent of control [15]?
A: 3.3%

Q: And the kinase still bound, per cent of control [16]?
A: 100%

Q: And the kinase still bound, per cent of control [17]?
A: 100%

Q: And the kinase still bound, per cent of control [18]?
A: 100%

Q: What about the kinase still bound, per cent of control [19] of the same molecule?
A: 77%

Q: What about the kinase still bound, per cent of control [20] of the same molecule?
A: 100%

Q: And the kinase still bound, per cent of control [21]?
A: 85%

Q: What about the kinase still bound, per cent of control [22] of the same molecule?
A: 100%

Q: And the kinase still bound, per cent of control [23]?
A: 96%

Q: What about the kinase still bound, per cent of control [24] of the same molecule?
A: 5.2%

Q: What about the kinase still bound, per cent of control [25] of the same molecule?
A: 3.6%

Q: And the kinase still bound, per cent of control [26]?
A: 81%

Q: What about the kinase still bound, per cent of control [27] of the same molecule?
A: 98%

Q: And the kinase still bound, per cent of control [28]?
A: 91%

Q: And the kinase still bound, per cent of control [29]?
A: 75%

Q: And the kinase still bound, per cent of control [30]?
A: 68%

Q: What about the kinase still bound, per cent of control [31] of the same molecule?
A: 100%

Q: What about the kinase still bound, per cent of control [32] of the same molecule?
A: 100%

Q: What about the kinase still bound, per cent of control [33] of the same molecule?
A: 100%

Q: And the kinase still bound, per cent of control [34]?
A: 74%

Q: And the kinase still bound, per cent of control [35]?
A: 83%

Q: What about the kinase still bound, per cent of control [36] of the same molecule?
A: 40%

Q: What about the kinase still bound, per cent of control [37] of the same molecule?
A: 2.8%

Q: And the kinase still bound, per cent of control [38]?
A: 63%

Q: And the kinase still bound, per cent of control [39]?
A: 92%

Q: And the kinase still bound, per cent of control [40]?
A: 90%

Q: `CCOc1cc2ncc(C#N)c(Nc3ccc(OCc4ccccn4)c(Cl)c3)c2cc1NC(=O)/C=C/CN(C)C` was tested. Which kinase still bound, per cent of control [1] did it give?
A: 100%

Q: And the kinase still bound, per cent of control [2]?
A: 70%

Q: What about the kinase still bound, per cent of control [3] of the same molecule?
A: 100%

Q: What about the kinase still bound, per cent of control [4] of the same molecule?
A: 100%

Q: And the kinase still bound, per cent of control [5]?
A: 99%

Q: What about the kinase still bound, per cent of control [6] of the same molecule?
A: 27%

Q: And the kinase still bound, per cent of control [7]?
A: 100%

Q: What about the kinase still bound, per cent of control [8] of the same molecule?
A: 98%

Q: What about the kinase still bound, per cent of control [9] of the same molecule?
A: 98%

Q: What about the kinase still bound, per cent of control [10] of the same molecule?
A: 94%

Q: What about the kinase still bound, per cent of control [11] of the same molecule?
A: 60%

Q: And the kinase still bound, per cent of control [12]?
A: 80%

Q: And the kinase still bound, per cent of control [13]?
A: 81%

Q: And the kinase still bound, per cent of control [14]?
A: 65%

Q: And the kinase still bound, per cent of control [15]?
A: 1.4%

Q: And the kinase still bound, per cent of control [16]?
A: 73%

Q: What about the kinase still bound, per cent of control [17] of the same molecule?
A: 8.4%

Q: And the kinase still bound, per cent of control [18]?
A: 65%

Q: And the kinase still bound, per cent of control [19]?
A: 100%

Q: And the kinase still bound, per cent of control [20]?
A: 78%

Q: And the kinase still bound, per cent of control [21]?
A: 100%

Q: And the kinase still bound, per cent of control [22]?
A: 100%

Q: And the kinase still bound, per cent of control [23]?
A: 52%

Q: What about the kinase still bound, per cent of control [24] of the same molecule?
A: 68%

Q: And the kinase still bound, per cent of control [25]?
A: 100%

Q: What about the kinase still bound, per cent of control [26] of the same molecule?
A: 35%

Q: And the kinase still bound, per cent of control [27]?
A: 100%

Q: And the kinase still bound, per cent of control [28]?
A: 100%

Q: What about the kinase still bound, per cent of control [29] of the same molecule?
A: 100%

Q: What about the kinase still bound, per cent of control [30] of the same molecule?
A: 0.4%

Q: And the kinase still bound, per cent of control [31]?
A: 100%

Q: And the kinase still bound, per cent of control [32]?
A: 97%

Q: And the kinase still bound, per cent of control [33]?
A: 82%

Q: And the kinase still bound, per cent of control [34]?
A: 100%

Q: What about the kinase still bound, per cent of control [35] of the same molecule?
A: 31%

Q: What about the kinase still bound, per cent of control [36] of the same molecule?
A: 95%

Q: What about the kinase still bound, per cent of control [37] of the same molecule?
A: 6.8%

Q: And the kinase still bound, per cent of control [38]?
A: 100%

Q: What about the kinase still bound, per cent of control [39] of the same molecule?
A: 92%

Q: What about the kinase still bound, per cent of control [40] of the same molecule?
A: 26%

Q: Which results are given for `O=C(NOC[C@H](O)CO)c1ccc(F)c(F)c1Nc1ccc(I)cc1F`?
A: kinase still bound, per cent of control [1]: 89%; kinase still bound, per cent of control [2]: 98%; kinase still bound, per cent of control [3]: 100%; kinase still bound, per cent of control [4]: 100%; kinase still bound, per cent of control [5]: 6.1%; kinase still bound, per cent of control [6]: 90%; kinase still bound, per cent of control [7]: 100%; kinase still bound, per cent of control [8]: 100%; kinase still bound, per cent of control [9]: 100%; kinase still bound, per cent of control [10]: 88%; kinase still bound, per cent of control [11]: 100%; kinase still bound, per cent of control [12]: 97%; kinase still bound, per cent of control [13]: 81%; kinase still bound, per cent of control [14]: 74%; kinase still bound, per cent of control [15]: 90%; kinase still bound, per cent of control [16]: 100%; kinase still bound, per cent of control [17]: 100%; kinase still bound, per cent of control [18]: 70%; kinase still bound, per cent of control [20]: 92%; kinase still bound, per cent of control [21]: 85%; kinase still bound, per cent of control [22]: 94%; kinase still bound, per cent of control [23]: 97%; kinase still bound, per cent of control [24]: 100%; kinase still bound, per cent of control [25]: 82% and 80%; kinase still bound, per cent of control [26]: 100%; kinase still bound, per cent of control [27]: 91%; kinase still bound, per cent of control [28]: 96%; kinase still bound, per cent of control [29]: 100%; kinase still bound, per cent of control [31]: 89%; kinase still bound, per cent of control [32]: 97%; kinase still bound, per cent of control [33]: 69%; kinase still bound, per cent of control [34]: 68%; kinase still bound, per cent of control [35]: 100%; kinase still bound, per cent of control [36]: 100%; kinase still bound, per cent of control [37]: 94%; kinase still bound, per cent of control [38]: 100%; kinase still bound, per cent of control [39]: 93%; kinase still bound, per cent of control [40]: 73%
